Assay [1] deals with Drosophila melanogaster flies. Nature of the assay: Lifespan of adult Drosophila melanogaster flies fed with compound (Kaplan-Meier analysis). It is filed as in vivo. As to conditions: 10 μM compound in food; for Average Lifespan: ±margin of error. On the procedure:
The experiments were conducted on isogenic flies (Drosophila melanogaster) of the genotype white^1118, also called white^− or w^−, and mutants (w^1118; step^k08110/step^SH0323) (strain # 10770 from the public Bloomington Stock Center, genotype: step^k08110/CyO, URL http://flybase.bio.indiana.edu/reports/FBstOO10770.html; strain # FBst0103734 from the public Szeged Stock Center, genotype: step^SH0323/CyO, URL http://flybase.bio.indiana.edu/reports/FBst0103734.html), in which the Drosophila cytohesin steppke is mutated and therefore defective.
By crossing the two steppke alleles k08110 and SH0323 eight times with whites flies, an isogenic genetic background is produced, which permits a comparison of the lifespans between the genotypes of the type white^1118 and the mutants (w^1118; step^k08110/step^SH0323). The average lifespan of the wild type was approximately 25 days, while that of the mutants (w^1118; step^k08110/step^SH0323) was approximately 30 days.
To produce the special food, 32.5 g autolysed yeast (Fluka (Catalog No. 73145)) and 10 g agar (Difco (Catalog No. 281230)) were mixed with 300 ml water (demineralized, Roth (Catalog No. 3175)) and autoclaved at 120° C. for 20 minutes. The solution was cooled to 60° C., and 32.5 g α-D(+)-glucose monohydrate (Roth (Catalog No. 6887)) were added under stirring. 15 ml 10% (w/v) p-hydroxybenzoic acid methylester (Sigma (Catalog No. H3647)) solution dissolved in 70% (v/v) ethanol (Roth (Catalog No. 9065)) and 1.35 ml dimethylsulfoxide (DMSO, Roth (Catalog No. A994)) were then added. Water was then added to this basic solution to a volume of 450 ml, which was then held at a temperature of 60° C. For the control food, 50 ml of a 0.7% (v/v) DMSO solution in water were produced. For the food containing the compounds according to formulas (9) or (25), 0.2 ml of a 25 mM solution of the compounds according to formula (9) or (25) in 100% DMSO were added to 49.8 ml of a 0.3012% DMSO solution in water.
These 50 ml of the control solutions and the solutions containing the compounds according to formula (9) or (25) were each mixed with 450 ml of the basic solution, and were placed in 4 ml amounts in polystyrene containers (height 9.5 cm, diameter 2.4 cm, sealed with cotton wadding) to maintain the flies. After 24 hours, the cooled containers were sealed with cotton wadding and stored at 4° C.
The final concentration of the food components in the control food was 6.5% (w/v) autolysed yeast, 6.5% (w/v) α-D(+)-glucose monohydrate, 2% (w/v) agar, 0.3% (w/v) p-hydroxybenzoic acid methylester, 2.1% ethanol (v/v), 0.34% (v/v) DMSO.
The final concentration of the food components in the food containing the compound according to formula (9) was 6.5% (w/v) autolysed yeast, 6.5% (w/v) α-D(+)-glucose monohydrate, 2% (w/v) agar, 0.3% (w/v) p-hydroxybenzoic acid methylester, 2.1% ethanol (v/v), 0.34% (v/v) DMSO, 10 μM compound according to formula (9).
The final concentration of the food components in the food containing the compound according to formula (25) was 6.5% (w/v) autolysed yeast, 6.5% (w/v) α-D(+)-glucose monohydrate, 2% (w/v) agar, 0.3% (w/v) p-hydroxybenzoic acid methylester, 2.1% ethanol (v/v), 0.34% (v/v) DMSO, 10 μM compound according to formula (25).
The larvae were maintained on standard fly food containing 1.1% (w/v) brewer's yeast (“Gewürzmühle Brecht” company), 5.43% (w/v) cornmeal, 0.53% (w/v) filamentous agar (“Gewürzmühle Brecht” company), 6.6% (v/v) sugar beet syrup (Grafschafter), 1.3% (v/v) ethanol (Roth company), 0.13% (w/v) p-hydroxybenzoic acid methylester (Sigma).
24 hours after emergence of the imagines, the adult flies, females and males were separated under a brief CO2 anesthetization lasting less than 2 minutes. During the 24 hours after emergence, the animals were fed using standard fly food. […]

The test system of assay [2] is Drosophila eukaryotic initiation factor 4E binding protein (d4EBP, Thor). Nature of the assay: Transcription rate of insulin target gene d4EBP in insulin-treated Drosophila S2 cells (real-time PCR). The assay is classed as cell-based. Conditions: 100 μM compound, 10 μg/ml human insulin, insulin alone less than 35%. As for the experimental part:
Drosophila Schneider 2 (S2) cells were cultivated in Schneider's Medium (PAN company) with 10% heat-inactivated fetal calf serum (FCS). 2×10^6 cells were drawn into 35 mm vessels at 25° C. to 80% confluence, washed one time in phosphate buffered saline solution (1×PBS, Gibco), and transferred for twelve hours to Schneider's Medium, without FCS. The cells were then preincubated for two hours with 0.5% DMSO containing Schneider's Medium, without FCS, with or without the compound according to formula (9) or formula (25), with the final concentrations of the compounds according to formulas (9) and (25) being 1 μM, 10 μM and 100 μM. This was followed by a four-hour stimulation with 10 μg/ml human insulin (Sigma).
After washing the cells two times with PBS, total RNA was then isolated from the cells using the NucleoSpin RNA II Kit (Macherey & Nagel), according to the manufacturer's instructions. The first strain cDNA synthesis was performed with every 500 ng RNA, using the QuantiTect Reverse Transcription Kit (Qiagen), according to the manufacturer's instructions. […]
The activity of the insulin signaling pathway was determined from the transcription rate of the insulin target gene Drosophila eukaryotic initiation factor 4E binding protein (d4EBP, Thor). […]

Take `COc1nc(-c2ccc(C(C)(C)C)cc2)n(-c2ccc(NC(=O)CSc3ccccc3)cc2)n1` [Compound (25)]: the change in lifespan result in assay [1] (control animals and mutants) is “no significant change”. Besides, the “Average Lifespan” value in assay [1] (genotype w^1118, female flies) is 25.0 (±0.7) Days; in assay [1] (genotype w^1118, step^k08110/step^SH0323 mutants, female flies) it was 29.3 (±0.7) Days. The “transcription rate of d4EBP as % of that of the untreated control groups” value in assay [2] is recorded as “more than 95%”.

Values taken from patent US20100048594A1, “USE OF CYTOHESIN INHIBITORS FOR CHEMICALLY INDUCING LONGEVITY” (RHEINISCHE FRIEDRICH-WILHELMS UNIVERSITAT, priority 2006, published 2010).
